The values below come from US20030065066A1, “Triazine UV absorbers comprising amino resins” (priority 1998, published 2003).

This series can be described thus: Solubility in xylenes. In kind it is physicochemical. The source says: A major advantage of alkoxymethylated melamine triazine UV absorbers of the present invention is not only their improved solubility, but also their improved compatibility with coatings resins compared to the corresponding triazine precursors. For example 2,4-bis(2,4-dimethylphenyl)-6-[2-hydroxy-4-(2-hydroxyethoxy)phenyl]-1,3-5-triazine is only soluble in xylenes to the extent of about 0.5%. […] Therefore Compound A is much easier to dissolve in high solids coating resin formulations than 2,4-bis(2,4-dimethylphenyl)-6-[2-hydroxy-4-(2-hydroxyethoxy)phenyl]-1,3-5-triazine, and overcomes the problem of cratering and poor weatherability of the final coatings due to undissolved UV absorber particles.

Take “2,4-bis(2,4-dimethylphenyl)-6-[2-hydroxy-4-(2-hydroxyethoxy)phenyl]-1,3-5-triazine [Compound a]”: the xylenes solubility result is reported as “about 0.5%”.
